Patent US20150258059A1, “ANTIMICROBIAL AND RADIOPROTECTIVE COMPOUNDS” (BioDiem, Ltd, priority 2001, published 2015)

Key:
Type in all cases: cell-based
[1] = system: Klebsiella pneumoniae M-A21; assay: Sensitivity of strains: suppression of growth; details: Compound (1) 1.0%; antibiotics disc method
[2] = system: Salmonella typhimurium M-727; assay: Sensitivity of strains: suppression of growth; details: Compound (1) 1.0%; antibiotics disc method
Acinetobacter B-677 = assay: Sensitivity of strains: suppression of growth; details: Compound (1) 1.0%; antibiotics disc method
[3] = system: Neisseria meningitidis M-6231; assay: Sensitivity of strains: suppression of growth; details: Compound (1) 1.0%; antibiotics disc method
Escherichia coli M-17 = assay: Sensitivity of strains: suppression of growth; details: Compound (1) 1.0%; antibiotics disc method
[4] = system: γ-hemolytic streptococcus B-672; assay: Sensitivity of strains: suppression of growth; details: Compound (1) 1.0%; antibiotics disc method
[5] = system: Staphylococcus aureus B-685; assay: Sensitivity of strains: suppression of growth; details: Compound (1) 1.0%; antibiotics disc method
[6] = system: Citrobacter diversus B-678; assay: Sensitivity of strains: suppression of growth; details: Compound (1) 1.0%; antibiotics disc method
Escherichia coli B-65 = assay: Sensitivity of strains: suppression of growth; details: Compound (1) 1.0%; antibiotics disc method
[7] = system: Staphylococcus aureus M-12159; assay: Sensitivity of strains: suppression of growth; details: Compound (1) 1.0%; antibiotics disc method
[8] = system: Klebsiella pneumoniae M-248; assay: Sensitivity of strains: suppression of growth; details: Compound (1) 1.0%; antibiotics disc method
[9] = system: Yersinia pseudotuberculosis; details: Compound (1) 1.0%; antibiotics disc method
Escherichia coli B-683 = assay: Sensitivity of strains: suppression of growth; details: Compound (1) 1.0%; antibiotics disc method
Acinetobacter B-681 = assay: Sensitivity of strains: suppression of growth; details: Compound (1) 1.0%; antibiotics disc method
[10] = system: Pseudomonas aeruginosa B-601; assay: Sensitivity of strains: suppression of growth; details: Compound (1) 1.0%; antibiotics disc method
Bacillus sp. B-575 = assay: Sensitivity of strains: suppression of growth; also: key: + sensitive strains; + moderately sensitive strains; − stable strains
[11] = system: Neisseria meningitidis M-A72; assay: Sensitivity of strains: suppression of growth; details: Compound (1) 1.0%; antibiotics disc method
Alkaligenes sp. B-667 = assay: Sensitivity of strains: suppression of growth; details: Compound (1) 1.0%; antibiotics disc method
[12] = system: Staphylococcus aureus B-674; assay: Sensitivity of strains: suppression of growth; details: Compound (1) 1.0%; antibiotics disc method
Alkaligenes sp. B-689 = assay: Sensitivity of strains: suppression of growth; details: Compound (1) 1.0%; antibiotics disc method
[13] = system: Shigella flexneri M-2A6907; assay: Sensitivity of strains: suppression of growth; details: Compound (1) 1.0%; antibiotics disc method
[14] = system: Staphylococcus aureus M-209; assay: Sensitivity of strains: suppression of growth; details: Compound (1) 1.0%; antibiotics disc method
[15] = system: Enterobacter aerogenes B-687; assay: Sensitivity of strains: suppression of growth; details: Compound (1) 1.0%; antibiotics disc method
[16] = system: Staphylococci epidermidis D-513; assay: Sensitivity of strains: suppression of growth; details: Compound (1) 1.0%; antibiotics disc method
[17] = system: Staphylococcus epidermidis BK-30; assay: Sensitivity of strains: suppression of growth; details: Compound (1) 1.0%; antibiotics disc method
[18] = system: β-hemolytic streptococcus B-624; assay: Sensitivity of strains: suppression of growth; details: Compound (1) 1.0%; antibiotics disc method
[19] = system: Conditional pathogenic enterobacteria gram-negative aerobic bacilli; also: key: + sensitive strains; + moderately sensitive strains; − stable strains
[20] = system: Enterobacter aerogenes B-679; assay: Sensitivity of strains: suppression of growth; details: Compound (1) 1.0%; antibiotics disc method
Acinetobacter B-676 = assay: Sensitivity of strains: suppression of growth; details: Compound (1) 1.0%; antibiotics disc method
[21] = system: Corynebacterium diphtheriae B-670; assay: Sensitivity of strains: suppression of growth; details: Compound (1) 1.0%; antibiotics disc method
Shigella sonnei B-720 = assay: Sensitivity of strains: suppression of growth; details: Compound (1) 1.0%; antibiotics disc method
[22] = system: Salmonella paratyphi M-16469; assay: Sensitivity of strains: suppression of growth; details: Compound (1) 1.0%; antibiotics disc method

Molecule: O=C(N[C@H](CO)[C@H](O)c1ccc([N+](=O)[O-])cc1)C(Cl)Cl [Antibiotic 7, levomicethin]
- Suppression of Growth (+/−) [1]: −
- Suppression of Growth (+/−) [2]: −
- Suppression of Growth (+/−) (Acinetobacter B-677): −
- Suppression of Growth (+/−) [3]: −
- Suppression of Growth (+/−) (Escherichia coli M-17): +
- Suppression of Growth (+/−) [4]: −
- Suppression of Growth (+/−) [5]: −
- Suppression of Growth (+/−) [6]: −
- Suppression of Growth (+/−) (Escherichia coli B-65): +
- Suppression of Growth (+/−) [7]: −
- Suppression of Growth (+/−) [8]: −
- Suppression of Growth (+/−) [9]: −
- Suppression of Growth (+/−) (Escherichia coli B-683): +
- Suppression of Growth (+/−) (Acinetobacter B-681): −
- Suppression of Growth (+/−) [10]: +
- Suppression of Growth (+/−) (Bacillus sp. B-575): +
- Suppression of Growth (+/−) [11]: −
- Suppression of Growth (+/−) (Alkaligenes sp. B-667): −
- Suppression of Growth (+/−) [12]: +
- Suppression of Growth (+/−) (Alkaligenes sp. B-689): +
- Suppression of Growth (+/−) [13]: +
- Suppression of Growth (+/−) [14]: −
- Suppression of Growth (+/−) [15]: −
- Suppression of Growth (+/−) [16]: −
- Suppression of Growth (+/−) [17]: −
- Suppression of Growth (+/−) [18]: −
- Suppression of Growth (+/−) [19]: −
- Suppression of Growth (+/−) [20]: −
- Suppression of Growth (+/−) (Acinetobacter B-676): −

Molecule: Cc1onc(-c2ccccc2)c1C(=O)N[C@@H]1C(=O)N2[C@@H]1SC(C)(C)[C@@H]2C(=O)O [Antibiotic 8, oxacillin]
- Suppression of Growth (+/−) [1]: −
- Suppression of Growth (+/−) [2]: −
- Suppression of Growth (+/−) (Acinetobacter B-677): −
- Suppression of Growth (+/−) [3]: −
- Suppression of Growth (+/−) (Escherichia coli M-17): −
- Suppression of Growth (+/−) [4]: −
- Suppression of Growth (+/−) [5]: +
- Suppression of Growth (+/−) [6]: −
- Suppression of Growth (+/−) (Escherichia coli B-65): −
- Suppression of Growth (+/−) [7]: +
- Suppression of Growth (+/−) [8]: −
- Suppression of Growth (+/−) [9]: −
- Suppression of Growth (+/−) (Escherichia coli B-683): −
- Suppression of Growth (+/−) (Acinetobacter B-681): −
- Suppression of Growth (+/−) [10]: −
- Suppression of Growth (+/−) [21]: −
- Suppression of Growth (+/−) (Bacillus sp. B-575): −
- Suppression of Growth (+/−) (Shigella sonnei B-720): −
- Suppression of Growth (+/−) [11]: −
- Suppression of Growth (+/−) (Alkaligenes sp. B-667): −
- Suppression of Growth (+/−) [12]: −
- Suppression of Growth (+/−) (Alkaligenes sp. B-689): −
- Suppression of Growth (+/−) [13]: −
- Suppression of Growth (+/−) [14]: −
- Suppression of Growth (+/−) [15]: −
- Suppression of Growth (+/−) [22]: −
- Suppression of Growth (+/−) [16]: +
- Suppression of Growth (+/−) [17]: +
- Suppression of Growth (+/−) [18]: −
- Suppression of Growth (+/−) [20]: −
- Suppression of Growth (+/−) (Acinetobacter B-676): −

Molecule: CC[C@H]1OC(=O)[C@H](C)[C@@H](O[C@H]2C[C@@](C)(OC)[C@@H](O)[C@H](C)O2)[C@H](C)[C@@H](O[C@@H]2O[C@H](C)C[C@H](N(C)C)[C@H]2O)[C@](C)(O)C[C@@H](C)C(=O)[C@H](C)[C@@H](O)[C@]1(C)O [Antibiotic 14, erythromycin]
- Suppression of Growth (+/−) [1]: −
- Suppression of Growth (+/−) [2]: −
- Suppression of Growth (+/−) (Acinetobacter B-677): −
- Suppression of Growth (+/−) [3]: −
- Suppression of Growth (+/−) (Escherichia coli M-17): +
- Suppression of Growth (+/−) [4]: −
- Suppression of Growth (+/−) [5]: −
- Suppression of Growth (+/−) [6]: −
- Suppression of Growth (+/−) (Escherichia coli B-65): +
- Suppression of Growth (+/−) [7]: −
- Suppression of Growth (+/−) [8]: −
- Suppression of Growth (+/−) [9]: −
- Suppression of Growth (+/−) (Escherichia coli B-683): +
- Suppression of Growth (+/−) (Acinetobacter B-681): −
- Suppression of Growth (+/−) [10]: +
- Suppression of Growth (+/−) [21]: +
- Suppression of Growth (+/−) (Shigella sonnei B-720): −
- Suppression of Growth (+/−) [11]: −
- Suppression of Growth (+/−) (Alkaligenes sp. B-667): −
- Suppression of Growth (+/−) [12]: +
- Suppression of Growth (+/−) (Alkaligenes sp. B-689): −
- Suppression of Growth (+/−) [13]: −
- Suppression of Growth (+/−) [14]: −
- Suppression of Growth (+/−) [15]: −
- Suppression of Growth (+/−) [22]: −
- Suppression of Growth (+/−) [16]: −
- Suppression of Growth (+/−) [17]: −
- Suppression of Growth (+/−) [18]: −
- Suppression of Growth (+/−) [19]: −
- Suppression of Growth (+/−) [20]: −
- Suppression of Growth (+/−) (Acinetobacter B-676): −

Molecule: gentamycin [Antibiotic 3]
- Suppression of Growth (+/−) [1]: −
- Suppression of Growth (+/−) [2]: −
- Suppression of Growth (+/−) (Acinetobacter B-677): −
- Suppression of Growth (+/−) [3]: −
- Suppression of Growth (+/−) (Escherichia coli M-17): +
- Suppression of Growth (+/−) [4]: −
- Suppression of Growth (+/−) [5]: +
- Suppression of Growth (+/−) [6]: +
- Suppression of Growth (+/−) (Escherichia coli B-65): +
- Suppression of Growth (+/−) [7]: +
- Suppression of Growth (+/−) [8]: −
- Suppression of Growth (+/−) [9]: −
- Suppression of Growth (+/−) (Escherichia coli B-683): +
- Suppression of Growth (+/−) (Acinetobacter B-681): −
- Suppression of Growth (+/−) [10]: +
- Suppression of Growth (+/−) [21]: +
- Suppression of Growth (+/−) (Shigella sonnei B-720): −
- Suppression of Growth (+/−) [11]: −
- Suppression of Growth (+/−) (Alkaligenes sp. B-667): −
- Suppression of Growth (+/−) [12]: +
- Suppression of Growth (+/−) (Alkaligenes sp. B-689): +
- Suppression of Growth (+/−) [13]: +
- Suppression of Growth (+/−) [14]: +
- Suppression of Growth (+/−) [15]: −
- Suppression of Growth (+/−) [22]: −
- Suppression of Growth (+/−) [16]: +
- Suppression of Growth (+/−) [17]: −
- Suppression of Growth (+/−) [18]: −
- Suppression of Growth (+/−) [19]: −
- Suppression of Growth (+/−) [20]: −
- Suppression of Growth (+/−) (Acinetobacter B-676): −

Molecule: ristomycin [Antibiotic 11]
- Suppression of Growth (+/−) [1]: −
- Suppression of Growth (+/−) [2]: −
- Suppression of Growth (+/−) [3]: −
- Suppression of Growth (+/−) (Escherichia coli M-17): −
- Suppression of Growth (+/−) [4]: +
- Suppression of Growth (+/−) [5]: +
- Suppression of Growth (+/−) [6]: −
- Suppression of Growth (+/−) (Escherichia coli B-65): +
- Suppression of Growth (+/−) [7]: +
- Suppression of Growth (+/−) [8]: −
- Suppression of Growth (+/−) [9]: −
- Suppression of Growth (+/−) (Escherichia coli B-683): −
- Suppression of Growth (+/−) (Acinetobacter B-681): −
- Suppression of Growth (+/−) [10]: −
- Suppression of Growth (+/−) [21]: +
- Suppression of Growth (+/−) (Shigella sonnei B-720): −
- Suppression of Growth (+/−) [11]: −
- Suppression of Growth (+/−) (Alkaligenes sp. B-667): −
- Suppression of Growth (+/−) [12]: −
- Suppression of Growth (+/−) (Alkaligenes sp. B-689): −
- Suppression of Growth (+/−) [13]: −
- Suppression of Growth (+/−) [14]: +
- Suppression of Growth (+/−) [15]: −
- Suppression of Growth (+/−) [22]: −
- Suppression of Growth (+/−) [16]: +
- Suppression of Growth (+/−) [17]: +
- Suppression of Growth (+/−) [18]: +
- Suppression of Growth (+/−) [20]: −
- Suppression of Growth (+/−) (Acinetobacter B-676): −
